Results: patent US9828393B2, “Silylalkyloxyaryl compounds and methods for treating cancer” (THE REGENTS OF THE UNIVERSITY OF COLORADO, a body corporate, priority 2013, dated 2017)

Experiments:
Assay type in all cases: cell-based, human
SK-OV-3 = test: NCI-60 cell line screen (SRB), SK-OV-3; conditions: Homo sapiens; Ovarian Cancer; SK-OV-3; 48 h drug incubation; read-out: GI50
Description: (§1) Drug sensitivity data are provided as GI50s (concentrations required to inhibit growth by 50%). The first row of the text file identifies cell lines, separated by tabs. Subsequent rows contain compound number, compound name, and GI50 for each cell line, each separated by a tab. […] For a typical screening experiment, cells are inoculated into 96 well microtiter plates in 100 μL at plating densities ranging from 5,000 to 40,000 cells/well depending on the doubling time of individual cell lines. After cell inoculation, the microtiter plates are incubated at 37° C., 5% CO2, 95% air and 100% relative humidity for 24 h prior to addition of experimental drugs. After 24 h, two plates of each cell line are fixed in situ with TCA, to represent a measurement of the cell population for each cell line at the time of drug addition (Tz). Experimental drugs are solubilized in dimethyl sulfoxide at 400-fold the desired final maximum test concentration and stored frozen prior to use. At the time of drug addition, an aliquot of frozen concentrate is thawed and diluted to twice the desired final maximum test concentration with complete medium containing 50 μg/ml gentamicin. Additional four, 10-fold or one-half log serial dilutions are made to provide a total of five drug concentrations plus control. Aliquots of 100 μl of these different drug dilutions are added to the appropriate microtiter wells already containing 100 μl of medium, resulting in the required final drug concentrations. Following drug addition, the plates are incubated for an additional 48 h at 37° C., 5% CO2, 95% air, and 100% relative humidity. For adherent cells, the assay is terminated by the addition of cold TCA. Cells are fixed in situ by the gentle addition of 50 μl of cold 50% (w/v) TCA (final concentration, 10% TCA) and incubated for 60 minutes at 4° C. The supernatant is discarded, and the plates are washed five times with tap water and air dried. Sulforhodamine B (SRB) solution (100 μl) at 0.4% (w/v) in 1% acetic acid is added to each well, and plates are incubated for 10 minutes at room temperature. After staining, unbound dye is removed by washing five times with 1% acetic acid and the plates are air dried. Bound stain is subsequently solubilized with 10 mM trizma base, and the absorbance is read on an automated plate reader at a wavelength of 515 nm. For suspension cells, the methodology is the same except that the assay is terminated by fixing settled cells at the bottom of the wells by gently adding 50 μl of 80% TCA (final concentration, 16% TCA). Using the seven absorbance measurements [time zero, (Tz), control growth, (C), and test growth in the presence of drug at the five concentration levels (Ti)], the percentage growth is calculated at each of the drug concentrations levels. […]

HS 578T = test: NCI-60 cell line screen (SRB), HS 578T; conditions: Homo sapiens; Breast Cancer; HS 578T; 48 h drug incubation; read-out: GI50
Description: as §1

RXF 393 = test: NCI-60 cell line screen (SRB), RXF 393; conditions: Homo sapiens; Renal Cancer; RXF 393; 48 h drug incubation; read-out: GI50
Description: as §1

M14 = test: NCI-60 cell line screen (SRB), M14; conditions: Homo sapiens; Melanoma; M14; 48 h drug incubation; read-out: GI50
Description: as §1

DU145 = test: NCI-60 cell line screen (SRB), DU145; conditions: Homo sapiens, DU-145; Prostate Cancer; DU145; 48 h drug incubation; read-out: GI50
Description: as §1

MDA-MB-231/ATCC = test: NCI-60 cell line screen (SRB), MDA-MB-231/ATCC; conditions: Homo sapiens; Breast Cancer; MDA-MB-231/ATCC; 48 h drug incubation; read-out: GI50
Description: as §1

UACC-62 = test: NCI-60 cell line screen (SRB), UACC-62; conditions: Homo sapiens; Melanoma; UACC-62; 48 h drug incubation; read-out: GI50
Description: as §1

NCI-H522 = test: NCI-60 cell line screen (SRB), NCI-H522; conditions: Homo sapiens; Non-Small Cell Lung Cancer; NCI-H522; 48 h drug incubation; read-out: GI50
Description: as §1

MOLT-4 = test: NCI-60 cell line screen (SRB), MOLT-4; conditions: Homo sapiens; Leukemia; MOLT-4; 48 h drug incubation; read-out: GI50
Description: as §1

COLO 205 = test: NCI-60 cell line screen (SRB), COLO 205; conditions: Homo sapiens; Colon Cancer; COLO 205; 48 h drug incubation; read-out: GI50
Description: as §1

SK-MEL-2 = test: NCI-60 cell line screen (SRB), SK-MEL-2; conditions: Homo sapiens; Melanoma; SK-MEL-2; 48 h drug incubation; read-out: GI50
Description: as §1

UO-31 = test: NCI-60 cell line screen (SRB), UO-31; conditions: Homo sapiens; Renal Cancer; UO-31; 48 h drug incubation; read-out: GI50
Description: as §1

T-47D = test: NCI-60 cell line screen (SRB), T-47D; conditions: Homo sapiens, T47D; Breast Cancer; T-47D; 48 h drug incubation; read-out: GI50
Description: as §1

786-0 = test: NCI-60 cell line screen (SRB), 786-0; conditions: Homo sapiens; Renal Cancer; 786-0; 48 h drug incubation; read-out: GI50
Description: as §1

KM12 = test: NCI-60 cell line screen (SRB), KM12; conditions: Homo sapiens; Colon Cancer; KM12; 48 h drug incubation; read-out: GI50
Description: as §1

CAKI-1 = test: NCI-60 cell line screen (SRB), CAKI-1; conditions: Homo sapiens; Renal Cancer; CAKI-1; 48 h drug incubation; read-out: GI50
Description: as §1

ACHN = test: NCI-60 cell line screen (SRB), ACHN; conditions: Homo sapiens, Renal Cancer, 48 h drug incubation, read-out: GI50
Description: as §1

Renal Cancer cell lines = test: NCI-60 cell line screen, Renal Cancer panel average; conditions: Homo sapiens; average over Renal Cancer panel; read-out: GI50 Average
Description: as §1

U-251 = test: NCI-60 cell line screen (SRB), U-251; conditions: Homo sapiens; CNS Cancer; U-251; 48 h drug incubation; read-out: GI50
Description: as §1

OVCAR-3 = test: NCI-60 cell line screen (SRB), OVCAR-3; conditions: Homo sapiens; Ovarian Cancer; OVCAR-3; 48 h drug incubation; read-out: GI50
Description: as §1

OVCAR-8 = test: NCI-60 cell line screen (SRB), OVCAR-8; conditions: Homo sapiens; Ovarian Cancer; OVCAR-8; 48 h drug incubation; read-out: GI50
Description: as §1

[1] = tested on: Non-Small Cell Lung Cancer cell lines; test: NCI-60 cell line screen, Non-Small Cell Lung Cancer panel average; conditions: Homo sapiens; average over Non-Small Cell Lung Cancer panel; read-out: GI50 Average
Description: as §1

IGROV1 = test: NCI-60 cell line screen (SRB), IGROV1; conditions: Homo sapiens, IGROV-1; Ovarian Cancer; IGROV1; 48 h drug incubation; read-out: GI50
Description: as §1

Leukemia cell lines = test: NCI-60 cell line screen, Leukemia panel average; conditions: Homo sapiens; average over Leukemia panel; read-out: GI50 Average
Description: as §1

Work on `CCCC[Si](C)(C)COc1ccc(C(=O)N[C@@H](Cc2ccc(OCc3c(Cl)cccc3Cl)cc2)C(=O)NC2CC(C)(C)NC(C)(C)C2)cc1` [GH1503, N^α-{4-[(butyldimethylsilyl)methoxy]-benzoyl}-N-(2,2,6,6-tetramethylpiperidin-4-yl)-[O-(2,6-dichlorobenzyl)-L-tyrosinamide]] yielded a GI50 (SK-OV-3) of 2030 nM, a GI50 (HS 578T) of 2010 nM and a GI50 (RXF 393) of 392 nM. For the same compound, the GI50 (M14) was 334 nM, the GI50 (DU145) was 274 nM and the GI50 (MDA-MB-231/ATCC) was 494 nM. It also gave a GI50 (UACC-62) of 1500 nM, a GI50 (NCI-H522) of 1970 nM and a GI50 (MOLT-4) of 315 nM. It also gave a GI50 (COLO 205) of 342 nM, a GI50 (SK-MEL-2) of 1560 nM and a GI50 (UO-31) of 1500 nM. The GI50 (T-47D) was 1840 nM, the GI50 (786-0) was 468 nM and the GI50 (KM12) was 382 nM. It also gave a GI50 (CAKI-1) of 1080 nM, a GI50 (ACHN) of 478 nM and a GI50 (Renal Cancer cell lines) of 1050 nM. For the same compound, the GI50 (U-251) was 234 nM, the GI50 (OVCAR-3) was 761 nM and the GI50 (OVCAR-8) was 263 nM. For the same compound, the GI50 [1] was 1210 nM, the GI50 (IGROV1) was 704 nM and the GI50 (Leukemia cell lines) was 572 nM.
